Assay results taken from patent US8227616B2, “Cyanopyridine antibacterial agents and methods of use thereof” (Wisconsin Alumni Research Foundation, priority 2006, dated 2012).
Converted amounts (≈) assume the structure as drawn.

How the values were obtained:
S. aureus ATCC 10390 [1] = experiment: Kirby-Bauer disk diffusion assay on compound spots from cleaved macroarray; type: cell-based, Staphylococcus aureus; details: loadings 30 μg/spot, 18 h incubation
Description: While the heterocyclic libraries were being synthesized, the chalcone macroarrays were analyzed using various direct assay techniques such as the Kirby-Bauer disk diffusion assay (FIG. 2E). Bauer, A. W.; Kirby, […].; Turck, M. Technical Bulletin of the Registry of Medical Technologists 1966, 36, 49-52. For this assay, the macroarray members are punched out from the membrane, cleaved from the support with TFA vapor, neutralized with ammonia vapor, and then placed on an agar bed inoculated with S. aureus. After incubating overnight, different diameters of zones of inhibition are measured as a factor of potency as well as solubility in the medium. Ammonia vapor neutralization was key in the disk diffusion assay, otherwise residual TFA vapor created a false positive signature. However, in this method, macroarrays have to be made in triplicate one for a replicate and one for compound characterization. We first evaluated test chalcone macroarrays (3) in antibacterial assays against S. aureus. Because the macroarrays were prepared on cellulose filter paper, we had convenient access to the compounds in disk form for standard disk diffusion assays. Compound spots were punched out of the macroarrays, subjected to vapor phase cleavage with acid (TFA), and neutralized (NH3) to afford disks containing ca. 30 μg of adsorbed compound [8]. These disks were manually placed on lawns of S. aureus, and zones of inhibition were measured after an 18 h incubation period. […] However, this antibacterial assay format had drawbacks: (1) the entire sample of compound was consumed during the assay, and thus replicate arrays needed to be synthesized to confirm activity, and (2) manipulating large numbers of compound disks was relatively labor intensive. Compound spots were cleaved with TFA and neutralized with NH3 as described herein. […] Compound spots were placed onto the agar, the plate was incubated at 37° C. for 18 h, and the diameters of the zones of inhibition were measured. […] Compound spots were subjected to the TFA cleavage conditions described above. The spots were next subjected to NH3 vapor to neutralize any remaining TFA. […] Vials containing the spots (or intact macroarrays) were placed inside a small evaporating dish, and this was placed into the NH4OH solution. The Pyrex dish was covered, and NH3 vapor was allowed to slowly diffuse into the vials. After 1 h, the vials were removed from the NH3 chamber, and the spots were allowed to stand open in a fume hood for at least 15 min to vent prior to analysis in the following assays. This afforded dry, paper disks containing adsorbed compound. […] The plates were removed, and the diameters of the zones of inhibition were measured in mm using a ruler (see FIG. 1A).

S. aureus ATCC 10390 [2] = experiment: Estimated MIC, solution-phase microdilution absorbance assay with crude macroarray spot stock solutions; type: cell-based, Staphylococcus aureus; details: for MIC: Staphylococcus aureus, ATCC10390, 12 h
Description: Spots from a new 69 member chalcone macroarray as well as the three heterocyclic macroarrays prepared earlier were punched out, cleaved, and eluted with acetonitrile. The resulting solutions were concentrated to a residue that was taken up in DMSO to form 2 mM stock solutions.
From the stock solutions, microdilution assays in a 96 well plate starting at 50 μM were performed in quadruplicate. Each well contained 5 μL of the stock solution as well as 195 μL of a S. aureus culture. The turbidity of each well was measured after incubating 12 hours using a standard plate reader. Active compounds can be further diluted and the assay repeated.
To acquire more quantitative antibacterial activity data about our compounds and verify our on-support assay results, we performed solution-phase absorbance assays that provided estimates of the minimum inhibitory concentration (MIC) of each macroarray member against S. aureus. Stock solutions (ca. 2 mM) were generated by cleaving and eluting 198 individual compounds from chalcone (3) and heterocyclic macroarrays (5, 7, and 8). […] The good overall purities of the crude macroarray compounds allowed for reasonable estimations of MICs.
(§1) For estimated MIC determination, DMSO was added to the dried compound residue obtained from a single spot to afford ca. 100 μL of a 2 mM stock solution. Aliquots (5 μL) of these solutions were added to a 96-well plate, followed by 195 μL of diluted S. aureus 10390 (10^6 CFUs/mL) to yield ca. 50 μM final concentrations. The plates were swirled for 1 h to ensure compound dissolution, incubated for 12 h at 37° C., and the absorbance at 595 nm was recorded using a plate reader. […] Actual MIC values were determined for lead compounds resynthesized in solution using an analogous procedure with solutions of known concentration (see).
Preparation of spot samples and controls. An aliquot of DMSO (ca. 100 μL depending on the loading of the parent hydroxyacetophenone) was added to the dried compound residue obtained after TFA cleavage and elution from a single spot. This afforded a 2.0 mM “spot stock” solution for each spot. A small aliquot of each “spot stock” solution was saved for subsequent LC-MS analysis.
For estimated MIC screens, 5.0 μL portions of the “spot stock” solutions were added to the appropriate wells in a sterile, polystyrene 96-well plate to yield ca. 50 μM solutions (dependent on the initial loading of hydroxyacetopheneone and compound purity). To the positive and negative control wells, 5.0 μL of DMSO were added (positive controls contained bacteria but no compound, while negative controls had neither compound nor bacteria). All estimated MIC assays were performed in quadruplicate. Note: the MIC value is defined as the lowest concentration where no bacterial growth occurs.
Representative estimated MIC assay procedure. This assay procedure is based in part on the method reported by Strøm et al.^xiii A 400 μL portion of overnight S. aureus 10390 culture was diluted with 100 mL of sterile LB broth to give ca. 10^6 CFUs per mL. Aliquots (195 μL) of this solution were added to all of the wells in a sterile 96-well plate (except for the negative control wells; 195 μL of sterile LB broth were added to these wells). The plates were placed on an orbital shaker table and gently swirled for 1 h to ensure compound dissolution, and then incubated (without shaking) for 12 h at 37° C. The absorbance at 595 nm was recorded using a plate reader.
The original “spot stock” solutions of these compounds were diluted with DMSO to give ca. 25 and 13 μM final concentrations and tested for inhibitory activities using the procedure described above.

S. aureus ATCC 10390 [3] = experiment: MIC determination with authentic compounds resynthesized in solution; type: cell-based, Staphylococcus aureus; details: Staphylococcus aureus, ATCC10390
Description: as §1
(§2) Dose response growth inhibition curves were determined for each active compound (resynthesized in solution) against S. aureus 10390 (SA) and methicillin-resistant S. aureus 33591 (MRSA). […] MIC assays were performed in quadruplicate.

[4] = tested on: Methicillin-resistant S. aureus ATCC 33591 (MRSA); experiment: as above; type: cell-based; details: Staphylococcus aureus; Table 3; authentic sample, only trans isomers of chalcones; error reflects step size in the serial dilutions
Description: as §1, §2

[5] = tested on: B. subtilis subsp. spizizenii ATCC 6633; experiment: MIC determination, species selectivity; type: cell-based; details: Bacillus subtilis, ATCC6633; authentic sample, only trans isomers of chalcones; error reflects step size
Description: (§3) Each compound from Table 3 was tested for inhibitory activity at 2.5, 5, 7.5, 10, 15, 20, 25, and 30 μM in the susceptible overlaid strains: B. subtilis ATCC 6633, S. epidermidis ATCC 12228, and K. pneumoniae ATCC 4352. MIC assays were run in quadruplicate as described above (with shaking).

K. pneumoniae ATCC 4352 = experiment: MIC determination, species selectivity; type: cell-based; details: Klebsiella pneumoniae, ATCC4352; authentic sample, only trans isomers of chalcones; error reflects step size
Description: as §3

[6] = tested on: S. epidermidis ATCC 12228; experiment: MIC determination, species selectivity; type: cell-based; details: Staphylococcus epidermidis, ATCC12228; authentic sample, only trans isomers of chalcones; error reflects step size
Description: as §3

K. pneumoniae = experiment: Agar overlay TTC assay, compound overlays; type: cell-based, Klebsiella pneumoniae; details: 30 nanomole aliquots of purified compound on filter paper
S. aureus ATCC 10390 [7] = experiment: Agar overlay TTC assay; type: cell-based, Staphylococcus aureus; details: methicillin susceptibility disk 10 μg, agar overlay TTC assay, 18 h
Source text: To take advantage of the spatially-addressed nature of the macroarray format, an agar overlay assay was employed that utilizes TTC (triphenyl tetrazolium chloride) as a visualization agent (FIG. 2[…].; Lu, A. T.; Solas, D. W.; Gore, […].; Coffin, […].; Wang, […].; Look, G. C.; Campbell, […]. Antimicrob. Agents Chemother. 1998, 1447-1453. Unfortunately, during macroarray synthesis the planarity of the support is not fully maintained, and small wrinkles develop in this particular assay. This problem was solved by using an adaptation of the common Western Blot technique to copy the macroarray members from the support to fresh wrinkle-free sheets while maintaining the spatially-addressed nature. This transfer can be completed in 90 seconds and four copies can be made at a time, however to date, it is applicable only for smaller macroarrays (6 cm×6 cm, 16 spots). The full macroarray was easily divided into these dimensions. The copies allowed for replicates to be made, and the original, which cannot be used in the assay, is used to validate the compounds by LCMS. As an added feature, the sensitivity of the assay was tuned by simply changing the amount of agar applied to the array. The copies generated in the assay can also be easily used to screened against multiple organisms. […] This assay format also took advantage of the spatially addressed nature of the arrays (FIG. 2C). […]

[8] = Table 2, serial dilution of stock solutions obtained by SPOT-synthesis, read-out: estimated MIC range
[9] = Table 3, serial dilution of spot stock solutions of crude macroarray compounds, read-out: S. aureus Estimated MIC range
[10] = Table 2, authentic sample synthesized according to standard techniques, read-out: observed MIC
[11] = Table 3, authentic sample, only trans isomers of chalcones, error reflects step size in the serial dilutions, read-out: S. aureus MIC

## O=C(/C=C/c1cccc(Cl)c1Cl)c1cccc(O)c1 [Compound 4Bl, 2,3-dichloro-3′-hydroxychalcone]
S. aureus ATCC 10390 [1]
  Zones of inhibition: 19 mm
S. aureus ATCC 10390 [2]; [8]
  MIC: 12.5 to 25 µM (≈ 3.66 to 7.33 µg/mL)
S. aureus ATCC 10390 [2]; [9]
  MIC: 12.5 to 25 µM (≈ 3.66 to 7.33 µg/mL)
S. aureus ATCC 10390 [3]; [10]
  MIC: 13.8 ± 1.2 µM (≈ 4.05 µg/mL)
S. aureus ATCC 10390 [3]; [11]
  MIC: 15 ± 0.5 µM (≈ 4.4 µg/mL)
[4]
  MIC: 15 ± 0.5 µM (≈ 4.4 µg/mL)
[5]
  MIC: 22.5 ± 2.5 µM (≈ 6.6 µg/mL)
K. pneumoniae ATCC 4352
  MIC: > 250 µM
[6]
  MIC: 12.5 ± 2.5 µM (≈ 3.66 µg/mL)
K. pneumoniae
  susceptibility in agar overlay TTC assay: weakly susceptible

## O=C(/C=C/c1c(Cl)ccc(Cl)c1Cl)c1cccc(O)c1 [Compound 4Bo, 3′-hydroxy-2,3,6-trichlorochalcone]
S. aureus ATCC 10390 [2]; 12.5 μM, macroarray stock solutions diluted four fold
  inhibition of S. aureus at the 12.5 μM level: complete inhibition
S. aureus ATCC 10390 [2]; [8]
  MIC: 6.25 to 12.5 µM (≈ 2.05 to 4.09 µg/mL)
S. aureus ATCC 10390 [2]; [9]
  MIC: < 12.5 µM
S. aureus ATCC 10390 [3]; [10]
  MIC: 6.5 ± 0.5 µM (≈ 2.13 µg/mL)
S. aureus ATCC 10390 [3]; [11]
  MIC: 10 ± 1 µM (≈ 3.28 µg/mL)
[4]
  MIC: 10 ± 1 µM (≈ 3.28 µg/mL)
[5]
  MIC: 8.8 ± 1.2 µM (≈ 2.88 µg/mL)
K. pneumoniae ATCC 4352
  MIC: > 250 µM
[6]
  MIC: 12.5 ± 2.5 µM (≈ 4.09 µg/mL)
K. pneumoniae
  susceptibility in agar overlay TTC assay: weakly susceptible

## COc1cccc(OC)c1C(=O)N[C@@H]1C(=O)N2[C@@H]1SC(C)(C)[C@@H]2C(=O)O [methicillin, reference compound]
S. aureus ATCC 10390 [7]
  Zone of inhibition: 39 mm
